# Where “and” joins values, the source holds several entries; their conditions need not be identical. Equal entries are not always repeated.
# Key:
# [1] = target: T1, recombinant human TNFRI (hTNFRI) (Homo sapiens, UniProt P19438); assay: SPR binding affinity to hTNFR I (BIAcore 3000); settings: SPR and ITC
# T1 construct: purchased Sino Biological Inc
# T1 sequence (P19438 30-211 limits assumed): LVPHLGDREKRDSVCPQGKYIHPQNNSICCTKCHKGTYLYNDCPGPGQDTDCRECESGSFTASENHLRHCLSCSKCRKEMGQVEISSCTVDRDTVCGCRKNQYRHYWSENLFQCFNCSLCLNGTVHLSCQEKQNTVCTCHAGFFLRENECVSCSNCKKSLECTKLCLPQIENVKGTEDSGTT
# Excerpt: (§1) BIAcore kinetic evaluation Ver. 4.1 software and Microcal ORIGIN Ver. 5.0 software were respectively used to determine the dissociation constant (KD).
# [2] = target: T2, recombinant human TNFRII (hTNFRII) (Homo sapiens, UniProt P20333); assay: SPR binding affinity to hTNFR II (BIAcore 3000); settings: SPR and ITC
# T2 construct: purchased Sino Biological Inc
# T2 sequence (P20333 23-257 limits assumed): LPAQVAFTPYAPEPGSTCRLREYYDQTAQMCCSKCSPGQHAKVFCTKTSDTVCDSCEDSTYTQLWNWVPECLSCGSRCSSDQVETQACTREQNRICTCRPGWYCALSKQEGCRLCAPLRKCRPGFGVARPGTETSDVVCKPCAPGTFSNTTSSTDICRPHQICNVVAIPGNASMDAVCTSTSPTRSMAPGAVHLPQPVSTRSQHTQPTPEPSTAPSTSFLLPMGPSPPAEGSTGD
# Excerpt: as §1
# Factor Xa = assay: In vitro factor Xa enzyme digestion half-life; assay type: in vitro ADME; settings: FXa 0.112 unit, 37 °C, 0-48 hours, HPLC-ESI-MS
# Protocol: FXa (0.112 unit) were added into the mixture. After being thoroughly mixed, the mixture was divided into six aliquots to six PCR tubes and hydrolyzed at 37 °C in dark for 48 hours. Samples were respectively obtained at different time points (0, 12, 24, 36 and 48 hours) and each of samples was boiled for 5 minutes to quench the reaction and centrifuged.
# HUVEC cells = assay: Proliferation inhibition of HUVEC cells (Cell Counting Kit-8); assay type: cell-based, human; settings: 20 nM, 48 hours
# Protocol: (§2) Du145, Raji, K562, Eca109, HeLa, MCF-7, MDA-MB-231 cells or non-tumorigenic epithelial cells MCF10A and HUVEC cells in logarithmic growth phase were respectively seeded into 96-well plates with the number of 8000 cells per well and incubated for 24 hours. […] The cells were counted with Cell Counting Kit-8. The IC50 was calculated using SPSS 17.0-Logit.
# [3] = tested on: human mammary non-tumorigenic epithelial cells MCF10A; assay: Proliferation of non-tumorigenic epithelial cells MCF10A (Cell Counting Kit-8); assay type: cell-based; settings: 20–900 nM, 48 hours
# Protocol: as §2
# [4] = target: T3, human TNFRI of ML-la cells (Homo sapiens, UniProt P19438); assay: Competition receptor binding assay, [125I]TNF α displacement from TNFRI; parameters: unit not given beside the values
# T3 construct: ML-la cells (a human myelomonoblastic leukemia cell line, 1 × 10^6 cells/well) were preincubated with either anti-p60 antibody or anti-p80 antibody; endogenous in cells; host or cells: ML-la (ML-1a) human myelomonoblastic leukemia cells
# T3 sequence (P19438 30-455): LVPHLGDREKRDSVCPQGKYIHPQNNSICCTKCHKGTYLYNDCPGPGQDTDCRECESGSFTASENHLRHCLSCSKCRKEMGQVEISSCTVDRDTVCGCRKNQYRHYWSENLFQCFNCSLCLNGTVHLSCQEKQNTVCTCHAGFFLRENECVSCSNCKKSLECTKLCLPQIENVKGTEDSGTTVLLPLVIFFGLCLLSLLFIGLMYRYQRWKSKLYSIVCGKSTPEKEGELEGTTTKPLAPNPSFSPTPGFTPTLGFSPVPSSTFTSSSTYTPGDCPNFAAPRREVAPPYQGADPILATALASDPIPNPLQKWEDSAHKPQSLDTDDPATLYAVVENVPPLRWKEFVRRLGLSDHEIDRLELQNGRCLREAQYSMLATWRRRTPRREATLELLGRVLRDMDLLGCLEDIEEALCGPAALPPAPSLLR
# Protocol: Free iodine was removed by gel filtration on a G-25 column equilibrated with phosphate-buffered saline containing 0.1% gelatin. […] Thereafter cells were washed three times with 150 μl of ice-cold phosphate-buffered saline containing 0.1% bovine serum albumin. Then each well was cut from the plate with a scissors, and cell-bound radioactivity was determined by an Apec-Series […] (ICN Biomedicals, Inc., Costa Mesa, CA)[51].
# Du145 cells [5] = assay: Apoptosis of Du145 cells, Annexin V-FITC/PI double staining-flow cytometry; assay type: cell-based, human
# Protocol: (§3) Du145 cells in logarithmic growth phase were seeded into 6-well plates with number of 3 × 10^5 cells per well.
# Du145 cells [6] = assay: Cell cycle of Du145 cells, PI single staining-flow cytometry; assay type: cell-based, human; settings: 20 nM, 48 hours
# Protocol: as §3
# Du145 transplanted tumor [7] = assay: Subcutaneous Du145 transplanted tumor in nude mice; assay type: in vivo, BALB/c-nu/nu nude mice; settings: tail vein once a day for 4 weeks; 0.1 ml of 40 nM RMP16 or P16, estramustine 60 mg/kg; by average tumor weight versus NaCl group; n = 6
# Protocol: Thirty male 4-week-old BALB/c-nu/nu nude mice (17–19 g), were divided into five groups. CK group (blank control) was the mice which were not inoculated Du145 cells, and the remaining four groups received inoculation of Du145 cells. 0.2 ml of Du145 cells suspension with the concentration of 1.5 × 10^7 cells/ml was injected subcutaneously into the right side of back of nude mice. […] The weights and volumes of tumors in different groups were measured once every four days, and tumor growth curves for each group were plotted.
# Du145 transplanted tumor [8] = assay: Microvessel density of removed tumors (anti-CD31 immunohistochemistry, Weidner method); assay type: in vivo, BALB/c-nu/nu nude mice; settings: tumors removed after 4 weeks of administration, anti-CD31, n = 6
# Protocol: (§4) Four weeks after administration, the mice were executed, and the tumors of different groups were removed and fixed with 10% neutral formalin or 2.5% glutaraldehyde. The fixed tumor tissue slides were subjected to Hematoxylin-eosin (HE) staining, immunohistochemistry in which anti-CD31 antibody and biotin-labeled IgG were respectively used as the first and second antibody, and TEM analysis. The microvessel densitied (MVD) in different tumor tissues was calculated using the Weidner method.
# Du145 transplanted tumor [9] = assay: TEM of removed tumors, cells with typical apoptosis characteristic; assay type: in vivo, BALB/c-nu/nu nude mice; settings: TEM of tumors removed after 4 weeks of administration
# Protocol: as §4
# [10] = tested on: chick chorioallantoic membrane; assay: Chick chorioallantoic membrane model of angiogenesis; assay type: in vivo; settings: 72 hours at 37 °C
# Protocol: Thirty fertilized chick embryos were randomly divided into five groups and incubated in the thermostatic incubator at 37 °C for six days (blunt end up). Drill a small window about 1 cm × 1 cm on the eggshell on the gas chamber side of chick embryo, meanwhile, also drill a small hole at the gas chamber, so that an artificial gas chamber was formed at the window. After removing the shell and shell membrane, the chicken chorioallantoic membrane (CAM) was exposed. […] The window was sealed with transparent tape, and chick embryos were incubated at 37 °C for 72 hours in thermostatic incubator.
# [11] = Pharmacokinetics in BALB/c mice after intravenous injection
# Protocol: Blood samples were collected by eye bleed from three mice at per time point prior to dosing and from 0.5 to 24 hours postdosing, and the plasma portion was analyzed by using an electrospray ionization, LC/MS/MS method described previously[48]. […] Tri (2-carboxyethyl) phosphine hydrochloride (TCEP) was used as a reducing agent to enhance peptide recovery and was added to all samples at a final concentration of 2 mM. After removing the plasma proteins through adding acetonitrile and centrifugation, the supernatant was transferred to another 96-well plate. Samples were analyzed by LC/MS/MS. Pharmacokinetic parameters were fitted to a two-compartment elimination model, and drug exposure (AUC), elimination half-life (t1⁄2), volume of distribution (Vd) and the clearance (CL) were calculated using WinNonlin Ver.
# [12] = Blood biochemical indexes of liver and kidney function in tumor-bearing nude mice; settings: serum at end of 4 weeks of administration, n = 6
# Protocol: The blood was collected and centrifuged at the end of administration for 4 weeks. The serum was placed into eppendorf (EP) tube and immediately sent to the First Affiliated Hospital of Jinan University where several tests closely related to liver/kidney function were performed, and the blood biochemical indexes AST, ALT, AST/ALT, ALB, GLB, ALB/GLB, DBILI, IBILI, TBILI, BUN and CREA were obtained.
# [13] = BALB/c, mouse, plasma, iv, 5 mg/kg
smiles,measurement,setting,value
CC[C@H](C)[C@H](NC(=O)[C@H](CCCNC(=N)N)NC(=O)[C@H](CO)NC(=O)[C@@H](NC(=O)[C@@H](NC(=O)[C@H](Cc1c[nH]cn1)NC(=O)[C@@H](NC(=O)[C@H](CC(C)C)NC(=O)[C@H](CC(C)C)NC(=O)[C@H](CCCNC(=N)N)NC(=O)CNC(=O)[C@H](CCC(=O)O)NC(=O)[C@@H](NC(=O)[C@H](Cc1c[nH]c2ccccc12)NC(=O)[C@H](CO)NC(=O)[C@H](CO)NC(=O)[C@@H]1CCCN1C(=O)[C@H](CCCNC(=N)N)NC(=O)[C@H](CCC(N)=O)NC(=O)[C@H](Cc1c[nH]c2ccccc12)NC(=O)[C@@H](N)CCSC)[C@@H](C)CC)[C@@H](C)O)[C@@H](C)O)[C@@H](C)CC)C(=O)N[C@@H](C)C(=O)N[C@H](C(=O)N[C@@H](CO)C(=O)N[C@@H](Cc1ccc(O)cc1)C(=O)N[C@@H](CCC(N)=O)C(=O)N[C@H](C(=O)N[C@@H](CCCCN)C(=O)N[C@H](C(=O)N[C@@H](CC(N)=O)C(=O)N[C@@H](CC(C)C)C(=O)N[C@@H](CC(C)C)C(=O)O)C(C)C)[C@@H](C)O)C(C)C [RMP16],binding affinity for hTNFRI higher than that for hTNFRII,[1],~410 times
same,bound less strongly to hTNFRI than did TNF α,[1],~4.5 times
same,bound less strongly to hTNFRII than did TNF α,[2],~6600 times
same,factor Xa enzyme digestion half-life in the presence of HSA,Factor Xa; 10 μM peptide in PBS with 2 μM HSA,15.83 h
same,half-life at 10 μM,"Factor Xa; factor Xa (FXa) enzyme digestion in PBS without HSA, 10 μM peptide in PBS without HSA, read-out: factor Xa enzyme digestion half-life in the absence of HSA (converted)",9.72 h
same,effect on proliferation of HUVEC,HUVEC cells,significantly inhibited the proliferation
same,effect on proliferation of MCF10A cells,[3],not significant effect
same,IC50 of displacing [125I]TNF α from TNFRI as multiple of that from TNFRII,[4],1/400
same,increase of apoptosis rate for Du145 cells,"Du145 cells [5]; 20 nM, 48 h, Annexin V-FITC/PI flow cytometry, versus PBS",14.21%
same,cell pro-apoptotic effect after TNFRI blocking,Du145 cells [5]; Du145 cells pre-incubated with 100 nM H398 (TNFRI-selective inhibitor) for 30 minutes at 37 °C before 20 nM RMP16,disappeared
same,increase of Du145 cells remaining in G0/G1 phase,Du145 cells [6],13.1%
same,reduction of Du145 cells remaining in S phase and G2/M phase,Du145 cells [6],12.9%
same,tumor inhibition rate,Du145 transplanted tumor [7],~80% and 78.11%
same,microvessel density (MVD),Du145 transplanted tumor [8],6.4 ± 0.62
same,percent of the tumor cells with typical apoptosis characteristic,Du145 transplanted tumor [9],about 79.6%
same,"vessel branch points, dose of 2 μg","[10]; 2 μg on filter membrane, n = 6",28.02 ± 1.37
same,"inhibition rate of angiogenesis, 2 μg","[10]; 2 μg on filter membrane, versus NaCl group",54.13 ± 5.13%
same,"vessel branch points, dose of 4 μg","[10]; 4 μg on filter membrane, n = 6",12.31 ± 2.95
same,"inhibition rate of angiogenesis, 4 μg","[10]; 4 μg on filter membrane, versus NaCl group",79.94 ± 4.64%
same,AUC,[11]; [13],1360 µg·h/mL
same,Vd,[11]; [13],0.0695 L/kg
same,clearance,[11]; [13],3.68 mL/h/kg
same,half-life,[11]; [13],13.1 h
same,half-life in mice,"[11]; in mice, as stated in abstract",13.11 h
same,ALB,[12],17.2 ± 0.2 g/L
same,ALT,[12],100.5 ± 20.5 U/L
same,AST,[12],154 ± 28 U/L
same,CREA,[12],10.5 ± 0.5 µM
same,DBILI,[12],3 ± 0.7 µM
same,GLB,[12],41.7 ± 1 g/L
same,IBILI,[12],9.25 ± 0.55 µM
same,TBILI,[12],12.25 ± 0.15 µM

# — PMC4559766 (Scientific Reports, 2015)
